Measurements reported in the kinase profiling compilation of Christmann-Franck et al. (2016).
pKd: −log10 of the molar value.

Key:
Assay in all cases: KINOMEscan competition binding
[1] = biological target: ACVRL1 (human) (UniProt P37023); settings: compound 10.0 µM
[2] = biological target: AURKB (human) (UniProt Q96GD4); settings: compound 10.0 µM
[3] = biological target: BRAF (human) (UniProt P15056); settings: compound 10.0 µM
[4] = biological target: BTK (human) (UniProt Q06187); settings: compound 10.0 µM
[5] = biological target: CDK4 CCND1 (human) (UniProt P11802+P24385); settings: compound 10.0 µM
[6] = biological target: CDKL1 (human) (UniProt Q00532); settings: compound 10.0 µM
[7] = biological target: CDKL2 (human) (UniProt Q92772); settings: compound 10.0 µM
[8] = biological target: CHEK2 (human) (UniProt O96017); settings: compound 10.0 µM
[9] = biological target: CSNK1G2 (human) (UniProt P78368); settings: compound 10.0 µM
[10] = system: EIF2AK4 KD2 (human), Q9P2K8 [S808G]; settings: compound 10.0 µM
[11] = biological target: EPHA8 (human) (UniProt P29322); settings: compound 10.0 µM
[12] = biological target: EPHB1 (human) (UniProt P54762); settings: compound 10.0 µM
[13] = biological target: EPHB3 (human) (UniProt P54753); settings: compound 10.0 µM
[14] = biological target: FGFR1 (human) (UniProt P11362); settings: compound 10.0 µM
[15] = biological target: GRK4 (human) (UniProt P32298); settings: compound 10.0 µM
[16] = biological target: IRAK4 (human) (UniProt Q9NWZ3); settings: compound 10.0 µM
[17] = biological target: MAP4K4 (human) (UniProt O95819); settings: compound 10.0 µM
[18] = biological target: MAPK4 (human) (UniProt P31152); settings: compound 10.0 µM
[19] = biological target: MYLK3 (human) (UniProt Q32MK0); settings: compound 10.0 µM
[20] = biological target: MYO3A (human) (UniProt Q8NEV4); settings: compound 10.0 µM
[21] = biological target: MYO3B (human) (UniProt Q8WXR4); settings: compound 10.0 µM
[22] = biological target: NEK3 (human) (UniProt P51956); settings: compound 10.0 µM
[23] = biological target: PAK1 (human) (UniProt Q13153); settings: compound 10.0 µM
[24] = biological target: PAK4 (human) (UniProt O96013); settings: compound 10.0 µM
[25] = biological target: PDPK1 (human) (UniProt O15530); settings: compound 10.0 µM
[26] = biological target: PIK3CA (human) (UniProt P42336); settings: compound 10.0 µM
[27] = biological target: PIK3CD (human) (UniProt O00329); settings: compound 10.0 µM
[28] = biological target: PLK1 (human) (UniProt P53350)
[29] = biological target: PTK2B (human) (UniProt Q14289); settings: compound 10.0 µM
[30] = biological target: PTK6 (human) (UniProt Q13882); settings: compound 10.0 µM
[31] = system: RET (human), P07949 [V804M]; settings: compound 10.0 µM
[32] = biological target: RIPK4 (human) (UniProt P57078); settings: compound 10.0 µM
[33] = biological target: SGK110 (human) (UniProt P0C264); settings: compound 10.0 µM
[34] = biological target: SIK3 (human) (UniProt Q9Y2K2); settings: compound 10.0 µM
[35] = biological target: STK16 (human) (UniProt O75716); settings: compound 10.0 µM
[36] = biological target: STK36 (human) (UniProt Q9NRP7); settings: compound 10.0 µM
[37] = biological target: TBK1 (human) (UniProt Q9UHD2); settings: compound 10.0 µM
[38] = biological target: TNK2 (human) (UniProt Q07912); settings: compound 10.0 µM
[39] = biological target: TRPM6 (human) (UniProt Q9BX84); settings: compound 10.0 µM
[40] = biological target: TSSK1B (human) (UniProt Q9BXA7); settings: compound 10.0 µM
[41] = biological target: TTK (human) (UniProt P33981); settings: compound 10.0 µM

Sequence of PLK1 (human) (P53350 whole entry, looked up): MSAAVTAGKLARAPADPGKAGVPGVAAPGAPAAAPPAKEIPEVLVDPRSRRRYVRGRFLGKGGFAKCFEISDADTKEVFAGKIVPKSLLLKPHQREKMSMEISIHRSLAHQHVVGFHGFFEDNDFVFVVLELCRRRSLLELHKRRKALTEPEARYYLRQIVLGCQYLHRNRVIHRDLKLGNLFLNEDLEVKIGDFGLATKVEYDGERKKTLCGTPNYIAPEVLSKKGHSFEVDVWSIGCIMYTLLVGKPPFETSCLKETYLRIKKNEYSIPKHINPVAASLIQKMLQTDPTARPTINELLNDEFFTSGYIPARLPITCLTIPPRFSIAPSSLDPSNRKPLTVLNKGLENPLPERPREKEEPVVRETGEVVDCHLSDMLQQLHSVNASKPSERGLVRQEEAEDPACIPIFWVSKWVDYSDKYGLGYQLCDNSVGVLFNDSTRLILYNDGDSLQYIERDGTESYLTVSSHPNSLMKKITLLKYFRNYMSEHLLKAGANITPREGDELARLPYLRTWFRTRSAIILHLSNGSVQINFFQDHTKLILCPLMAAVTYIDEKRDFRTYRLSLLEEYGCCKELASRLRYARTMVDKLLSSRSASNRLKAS
Sequence of EPHB3 (human) (P54753 whole entry, looked up): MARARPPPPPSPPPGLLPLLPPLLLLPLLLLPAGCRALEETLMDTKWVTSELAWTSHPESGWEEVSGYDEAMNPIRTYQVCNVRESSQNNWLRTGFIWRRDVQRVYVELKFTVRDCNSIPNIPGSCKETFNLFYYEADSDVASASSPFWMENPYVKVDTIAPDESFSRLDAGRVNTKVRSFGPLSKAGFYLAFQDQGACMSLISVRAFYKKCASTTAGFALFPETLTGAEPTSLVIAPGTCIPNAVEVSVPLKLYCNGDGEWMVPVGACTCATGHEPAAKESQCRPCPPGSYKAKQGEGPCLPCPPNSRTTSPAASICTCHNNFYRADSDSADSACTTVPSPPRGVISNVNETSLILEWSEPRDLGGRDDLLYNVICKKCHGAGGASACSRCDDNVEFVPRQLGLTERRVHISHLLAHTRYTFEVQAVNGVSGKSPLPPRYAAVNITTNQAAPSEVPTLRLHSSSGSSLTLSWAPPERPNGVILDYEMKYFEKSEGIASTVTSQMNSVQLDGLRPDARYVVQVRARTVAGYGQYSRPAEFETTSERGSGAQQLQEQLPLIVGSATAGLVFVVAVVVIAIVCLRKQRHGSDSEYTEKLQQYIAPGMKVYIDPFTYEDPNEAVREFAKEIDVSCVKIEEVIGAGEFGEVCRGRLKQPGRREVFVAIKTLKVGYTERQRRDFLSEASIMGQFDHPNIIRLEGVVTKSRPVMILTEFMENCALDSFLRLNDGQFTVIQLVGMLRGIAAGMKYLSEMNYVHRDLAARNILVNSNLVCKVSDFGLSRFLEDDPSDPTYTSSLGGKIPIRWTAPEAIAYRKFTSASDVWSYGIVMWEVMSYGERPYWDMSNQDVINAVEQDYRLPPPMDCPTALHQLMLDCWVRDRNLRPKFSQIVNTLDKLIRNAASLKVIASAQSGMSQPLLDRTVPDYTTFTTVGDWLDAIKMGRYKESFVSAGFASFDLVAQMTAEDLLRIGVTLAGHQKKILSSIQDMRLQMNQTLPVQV
Sequence of MYO3A (human) (Q8NEV4 whole entry, looked up): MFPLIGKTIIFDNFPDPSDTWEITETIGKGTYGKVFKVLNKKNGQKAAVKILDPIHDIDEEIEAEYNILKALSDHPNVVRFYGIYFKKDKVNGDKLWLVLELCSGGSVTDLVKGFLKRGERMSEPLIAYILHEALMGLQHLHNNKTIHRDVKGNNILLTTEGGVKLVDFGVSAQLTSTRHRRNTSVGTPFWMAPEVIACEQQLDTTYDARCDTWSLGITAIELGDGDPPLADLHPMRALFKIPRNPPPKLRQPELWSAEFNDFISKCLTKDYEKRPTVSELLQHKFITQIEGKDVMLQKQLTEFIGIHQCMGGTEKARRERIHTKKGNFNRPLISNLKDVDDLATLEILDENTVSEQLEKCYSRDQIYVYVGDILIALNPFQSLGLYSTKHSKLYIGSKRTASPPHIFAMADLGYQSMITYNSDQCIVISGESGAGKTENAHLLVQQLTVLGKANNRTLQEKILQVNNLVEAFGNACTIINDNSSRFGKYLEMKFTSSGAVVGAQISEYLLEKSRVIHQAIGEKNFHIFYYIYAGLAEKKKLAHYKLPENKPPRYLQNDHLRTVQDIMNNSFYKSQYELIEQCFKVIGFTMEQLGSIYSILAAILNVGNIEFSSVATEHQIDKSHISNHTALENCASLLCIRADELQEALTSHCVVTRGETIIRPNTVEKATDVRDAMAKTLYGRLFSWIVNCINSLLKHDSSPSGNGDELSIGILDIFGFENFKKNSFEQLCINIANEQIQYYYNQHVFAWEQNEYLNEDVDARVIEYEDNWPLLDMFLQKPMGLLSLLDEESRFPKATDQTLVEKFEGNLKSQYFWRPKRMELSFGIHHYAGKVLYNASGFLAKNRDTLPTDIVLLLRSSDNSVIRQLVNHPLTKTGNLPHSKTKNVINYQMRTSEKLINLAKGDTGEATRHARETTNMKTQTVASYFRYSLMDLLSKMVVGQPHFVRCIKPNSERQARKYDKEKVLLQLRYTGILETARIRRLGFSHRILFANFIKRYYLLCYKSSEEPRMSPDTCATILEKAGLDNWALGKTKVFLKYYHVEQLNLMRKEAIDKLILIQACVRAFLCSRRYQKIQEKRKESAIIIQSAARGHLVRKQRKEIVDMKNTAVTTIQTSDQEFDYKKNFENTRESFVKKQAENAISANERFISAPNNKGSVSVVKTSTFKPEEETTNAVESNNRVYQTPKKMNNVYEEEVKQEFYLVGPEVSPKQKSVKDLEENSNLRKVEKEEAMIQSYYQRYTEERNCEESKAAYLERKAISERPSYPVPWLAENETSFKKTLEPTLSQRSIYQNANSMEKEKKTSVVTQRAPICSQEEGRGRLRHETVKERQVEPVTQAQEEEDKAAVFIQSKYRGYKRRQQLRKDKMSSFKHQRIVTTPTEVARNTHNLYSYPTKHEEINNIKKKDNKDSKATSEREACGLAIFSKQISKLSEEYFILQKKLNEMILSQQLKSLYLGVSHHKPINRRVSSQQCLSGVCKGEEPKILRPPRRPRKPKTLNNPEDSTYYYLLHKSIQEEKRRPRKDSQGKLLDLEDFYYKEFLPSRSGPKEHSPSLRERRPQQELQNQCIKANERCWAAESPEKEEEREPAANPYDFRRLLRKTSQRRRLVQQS
Sequence of PAK1 (human) (Q13153 whole entry, looked up): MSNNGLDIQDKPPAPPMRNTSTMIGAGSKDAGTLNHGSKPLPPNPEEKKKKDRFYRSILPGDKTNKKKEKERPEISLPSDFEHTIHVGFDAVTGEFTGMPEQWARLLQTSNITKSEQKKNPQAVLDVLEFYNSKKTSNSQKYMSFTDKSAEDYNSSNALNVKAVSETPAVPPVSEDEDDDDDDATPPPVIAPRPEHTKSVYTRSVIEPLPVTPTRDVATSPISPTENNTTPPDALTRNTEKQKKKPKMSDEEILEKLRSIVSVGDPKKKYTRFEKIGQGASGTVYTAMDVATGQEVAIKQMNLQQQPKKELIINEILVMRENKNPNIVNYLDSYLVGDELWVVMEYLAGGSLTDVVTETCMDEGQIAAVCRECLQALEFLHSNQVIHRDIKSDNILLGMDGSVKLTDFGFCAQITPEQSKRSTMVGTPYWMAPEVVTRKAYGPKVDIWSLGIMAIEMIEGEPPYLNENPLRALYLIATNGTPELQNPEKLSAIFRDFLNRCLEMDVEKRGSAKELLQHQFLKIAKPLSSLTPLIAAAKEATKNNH
Sequence of SIK3 (human) (Q9Y2K2 whole entry, looked up): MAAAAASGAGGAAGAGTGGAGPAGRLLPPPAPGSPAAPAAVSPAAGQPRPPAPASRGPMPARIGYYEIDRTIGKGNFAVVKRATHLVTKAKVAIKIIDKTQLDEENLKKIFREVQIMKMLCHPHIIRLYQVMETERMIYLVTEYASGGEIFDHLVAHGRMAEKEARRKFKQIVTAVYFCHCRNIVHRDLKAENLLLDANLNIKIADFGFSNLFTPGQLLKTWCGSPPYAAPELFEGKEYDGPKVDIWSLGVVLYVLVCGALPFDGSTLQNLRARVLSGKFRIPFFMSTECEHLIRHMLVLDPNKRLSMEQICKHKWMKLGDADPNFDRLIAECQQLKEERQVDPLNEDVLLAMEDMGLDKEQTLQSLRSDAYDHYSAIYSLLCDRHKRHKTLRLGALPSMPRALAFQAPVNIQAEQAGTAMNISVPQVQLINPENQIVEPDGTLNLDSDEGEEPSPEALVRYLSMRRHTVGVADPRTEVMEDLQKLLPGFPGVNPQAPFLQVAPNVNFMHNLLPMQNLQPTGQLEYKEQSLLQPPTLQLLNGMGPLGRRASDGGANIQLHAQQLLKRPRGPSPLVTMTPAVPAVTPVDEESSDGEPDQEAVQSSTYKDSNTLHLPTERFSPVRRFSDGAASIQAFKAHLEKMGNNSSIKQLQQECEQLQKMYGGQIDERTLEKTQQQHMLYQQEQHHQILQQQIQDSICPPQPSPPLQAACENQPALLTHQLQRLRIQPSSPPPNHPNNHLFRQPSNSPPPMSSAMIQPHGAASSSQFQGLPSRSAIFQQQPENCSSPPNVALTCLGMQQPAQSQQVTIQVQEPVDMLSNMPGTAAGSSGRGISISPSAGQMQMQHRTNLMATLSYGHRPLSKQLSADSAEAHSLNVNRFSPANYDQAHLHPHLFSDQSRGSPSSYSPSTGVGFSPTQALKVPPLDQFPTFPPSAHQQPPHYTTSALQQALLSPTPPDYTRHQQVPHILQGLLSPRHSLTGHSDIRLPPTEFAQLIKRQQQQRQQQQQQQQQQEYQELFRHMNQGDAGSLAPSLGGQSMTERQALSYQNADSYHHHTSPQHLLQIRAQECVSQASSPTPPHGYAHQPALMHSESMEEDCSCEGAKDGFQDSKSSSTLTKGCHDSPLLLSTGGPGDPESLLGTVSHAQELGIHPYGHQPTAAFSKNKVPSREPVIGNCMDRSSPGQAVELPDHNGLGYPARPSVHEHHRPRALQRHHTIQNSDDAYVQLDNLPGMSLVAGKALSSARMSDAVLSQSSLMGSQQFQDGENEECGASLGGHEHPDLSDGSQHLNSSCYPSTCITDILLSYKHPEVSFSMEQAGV

COc1cc(C(=O)N2CCC(N3CCN(C)CC3)CC2)ccc1Nc1ncc2c(n1)N(C)c1ccccc1C(=O)N2C
kinase still bound, per cent of control [1]: 100% | kinase still bound, per cent of control [2]: 38% | kinase still bound, per cent of control [3]: 81% | kinase still bound, per cent of control [4]: 100% | residual activity [5]: 100% | residual activity [6]: 78% | residual activity [7]: 100% | kinase still bound, per cent of control [8]: 66% | kinase still bound, per cent of control [9]: 100% | kinase still bound, per cent of control [10]: 95% | kinase still bound, per cent of control [11]: 80% | kinase still bound, per cent of control [12]: 98% | kinase still bound, per cent of control [13]: 100% | kinase still bound, per cent of control [14]: 86% | kinase still bound, per cent of control [15]: 86% | kinase still bound, per cent of control [16]: 83% | kinase still bound, per cent of control [17]: 85% | kinase still bound, per cent of control [18]: 100% | kinase still bound, per cent of control [19]: 100% | kinase still bound, per cent of control [20]: 94% | kinase still bound, per cent of control [21]: 83% | kinase still bound, per cent of control [22]: 100% | kinase still bound, per cent of control [23]: 95% | kinase still bound, per cent of control [24]: 94% | kinase still bound, per cent of control [25]: 100% | kinase still bound, per cent of control [26]: 74% | kinase still bound, per cent of control [27]: 62% | pKd [28]: 7.12 | kinase still bound, per cent of control ([28]; compound 10.0 µM): 0.7% | kinase still bound, per cent of control [29]: 78% | kinase still bound, per cent of control [30]: 58% | kinase still bound, per cent of control [31]: 80% | kinase still bound, per cent of control [32]: 74% | kinase still bound, per cent of control [33]: 62% | kinase still bound, per cent of control [34]: 100% | kinase still bound, per cent of control [35]: 62% | kinase still bound, per cent of control [36]: 97% | kinase still bound, per cent of control [37]: 97% | kinase still bound, per cent of control [38]: 18% | kinase still bound, per cent of control [39]: 100% | kinase still bound, per cent of control [40]: 60% | kinase still bound, per cent of control [41]: 28%
